{"source": "patent US11072590B2", "about": "“1,4,7,10-tetrazacyclododecane based agents to target bacteria and its use” (HELMHOLTZ-ZENTRUM FUER INFEKTIONSFORSCHUNG GMBH, priority 2014, dated 2021)", "type_in_all_cases": "cell-based", "key": {"[1]": {"system": "P. aeruginosa PA07/wt", "experiment": "Broth microdilution MIC, P. aeruginosa PA07/wt", "experimental": "(§1) All liquids and media were sterilized by autoclaving (121° C., 15 min) before use. All aqueous solutions and media were prepared using distilled, deionized, and filtered water (Millipore Milli-Q Advantage A10 Water Purification System) Mueller-Hinton No. 2 broth (MHII broth; cation adjusted) was purchased from Sigma-Aldrich (St. Louis, Mo.). Iron-deficient (−Fe) MHII broth was prepared by adding 0.8 mL of a 1 mg/mL sterile aq. solution of 2,2′-bipyridine to 49.2 mL of MHII broth. Iron-rich (+Fe) MHII broth was prepared by adding 0.8 mL of a 1 mg/mL sterile aq. solution of FeCl3 to 49.2 mL of MH II broth.\n(§2) Antibacterial activity of the compounds was determined by measuring their minimum inhibitory concentrations (MIC90's) using the broth microdilution method according to the Clinical and Laboratory Standards Institute (CLSI, formerly the NCCLS) guidelines. Each well of a 96-well microtiter plate was filled with 40 μL of sterile broth media (−Fe or +Fe). Each test compound was dissolved in DMSO making a 10 mM solution, and then diluted with sterile broth media (−Fe or +Fe) to 75 or 150 μM. Exactly 80 μL of the compound solution was added to the first well of the microtiter plate and 1.5-fold serial dilutions were made down each row of the plate. Exactly 40 μL of bacterial inoculum (Acinetobacter baumannii, Pseudomonas aeruginosa, Staphylococcus aureus Starting Optical density (OD)=0.0005) was then added to each well giving a total volume of 80 μL/well. The plate was incubated at 37° C. for 48 h and then each well was examined for bacterial growth. The MIC90 was recorded as the lowest compound concentration (μM) required to inhibit 90% of bacterial growth as judged by turbidity of the culture media relative to a row of wells filled with a DMSO standard."}, "[2]": {"system": "P. aeruginosa PAO01/fptA", "experiment": "Broth microdilution MIC, P. aeruginosa PAO01/fptA mutant", "settings": "mutation in pyochelin outer membrane receptor precursor", "experimental": "as §1, §2"}, "[3]": {"system": "Acinetobacter baumannii", "experiment": "Uptake in bacteria by confocal fluorescent microscopy", "settings": "20 μM probe, 1 hour at 37° C., PBS", "experimental": "The uptake of coumarin 343, HHY-10 and HHY-11 was investigated in gram-negative bacteria Pseudomonas aeruginosa PA7 (DSM 24068), Acinetobacter baumannii (DSM 30007, ATCC 19606) and gram-positive bacteria Staphylococcus aureus MRSA (DSM 11822, ICB 25701). Gram-negative bacteria were cultured overnight in Mueller Hinton Broth (M-H Broth)+1% glucose (10 g/L) or Gram-positive bacteria were cultured overnight in trypticase soy yeast extract medium (TSY-Med) at 37° C. under 5% CO2 in an incubator shaker set at 180 rpm. Bacteria (from the overnight culture) were re-suspended in 10 mL of PBS buffer, to an optical density of 0.1 at 600 nm. The bacterial culture solution was transferred into 48 well plates, with each well containing 200 μL of bacteria, and 0.4 μL of either coumarin 343, HHY-10 and HHY-11 stock solutions (10 mM in PBS) were added, generating a 20 μM probe concentration. The bacteria were incubated with the probes for 1 hour at 37° C. under 5% CO2 in an incubator without shaking. The bacteria were harvested by centrifuging the bacterial solutions. The resulting pellets were washed 3 times with 200 μL PBS by resuspending the pellets in PBS and centrifuging. The washed bacterial pellets were transferred into a slice, then imaged using confocal fluorescent microscopy. The intensity of the green signal from coumarin presents the relevant amount of these probes taken by the bacteria."}, "[4]": {"system": "Pseudomonas aeruginosa PA7 (DSM 24068)", "experiment": "Broth microdilution MIC, Pseudomonas aeruginosa", "experimental": "as §1, §2\n(§3) Compounds HHY-10 and HHY-11 were subjected to further assays to determine their minimum inhibitory concentrations (MIC) in both iron-rich and iron-deficient media (Table 1). […] Compounds 10 and 11 were also tested against Klebsiella pneumoniae (DSM 11678, ATCC 33495), which is able to synthesize and utilize enterobactin and its degraded product for iron uptake under iron-limited conditions. […] It appears that P. aeruginosa, A. baumannii, Straph aureus and K. pneumoniae, either induced or inherently, have different abilities to use triscatecholate as a siderophore for iron uptake. The inhibitory activities of vancomycin siderophore-DOTA conjugate HHY-30 have been analyzed under similar conditions."}, "[5]": {"system": "P. aeruginosa PA14/wt", "experiment": "Broth microdilution MIC, P. aeruginosa PA14/wt", "experimental": "as §1, §2"}, "[6]": {"system": "Klebsiella pneumoniae (DSM 11678, ATCC 33495)", "experiment": "Broth microdilution MIC, Klebsiella pneumoniae", "experimental": "as §1, §2, §3"}, "[7]": {"system": "Acinetobacter baumannii (DSM 30007, ATCC 19606)", "experiment": "Broth microdilution MIC, Acinetobacter baumannii", "experimental": "as §1, §2, §3"}, "[8]": {"system": "Staphylococcus aureus MRSA (DSM 11822, ICB 25701)", "experiment": "Broth microdilution MIC, Staphylococcus aureus", "experimental": "as §1, §2, §3"}, "[9]": {"system": "P. aeruginosa PA01/wt", "experiment": "Broth microdilution MIC, P. aeruginosa PA01/wt", "experimental": "as §1, §2"}, "[10]": {"system": "Pseudomonas aeruginosa PA7, Acinetobacter baumannii, Staphylococcus aureus MRSA", "experiment": "Bacterial inhibition assays, across the bacteria tested", "experimental": "as §1\nAntibacterial activity of the compounds was determined by measuring their minimum inhibitory concentrations (MIC90's) using the broth microdilution method according to the Clinical and Laboratory Standards Institute (CLSI, formerly the NCCLS) guidelines. Each well of a 96-well microtiter plate was filled with 40 μL of sterile broth media (−Fe or +Fe). Each test compound was dissolved in DMSO making a 10 mM solution, and then diluted with sterile broth media (−Fe or +Fe) to 75 or 150 μM. […]\nCompounds HHY-10 and HHY-11 were subjected to further assays to determine their minimum inhibitory concentrations (MIC) in both iron-rich and iron-deficient media (Table 1). […] The inhibitory activities of vancomycin siderophore-DOTA conjugate HHY-30 have been analyzed under similar conditions."}, "[11]": {"system": "P. aeruginosa PA01/pirA", "experiment": "Broth microdilution MIC, P. aeruginosa PA01/pirA mutant", "settings": "mutant with defect in ferric enterobactin receptor (pirA)", "experimental": "as §1, §2"}, "[12]": {"settings": "Fe− (iron-deficient MHII broth)"}}, "note": "Read-outs that look alike come from different tables or passages of the source."}
{"smiles": "O=C(O)c1cc2cc3c4c(c2oc1=O)CCCN4CCC3", "note": "[Coumarin 343, reference compound]", "values": [{"measurement": "MIC", "setting": "[1]; Fe+ (iron-rich MHII broth)", "value": ">100", "unit": "µM"}, {"measurement": "MIC", "setting": "[1]; [12]", "value": ">100", "unit": "µM"}, {"measurement": "MIC", "setting": "[2]; Fe+ (iron-rich MHII broth)", "value": ">100", "unit": "µM"}, {"measurement": "MIC", "setting": "[2]; [12]", "value": ">100", "unit": "µM"}, {"measurement": "uptake: fluorescence (green signal from coumarin) in bacteria", "setting": "[3]", "value": "would not lead to obvious fluorescence"}, {"measurement": "MIC", "setting": "[4]; Fe+ (iron-rich MHII broth)", "value": ">100", "unit": "µM"}, {"measurement": "MIC", "setting": "[4]; [12]", "value": ">100", "unit": "µM"}, {"measurement": "MIC", "setting": "[5]; Fe+ (iron-rich MHII broth)", "value": ">100", "unit": "µM"}, {"measurement": "MIC", "setting": "[5]; [12]", "value": ">100", "unit": "µM"}, {"measurement": "MIC", "setting": "[6]; Fe+ (iron-rich MHII broth)", "value": ">100", "unit": "µM"}, {"measurement": "MIC", "setting": "[6]; [12]", "value": ">100", "unit": "µM"}, {"measurement": "MIC", "setting": "[7]; Fe+ (iron-rich MHII broth)", "value": ">100", "unit": "µM"}, {"measurement": "MIC", "setting": "[7]; [12]", "value": ">100", "unit": "µM"}, {"measurement": "MIC", "setting": "[8]; Fe+ (iron-rich MHII broth)", "value": ">100", "unit": "µM"}, {"measurement": "MIC", "setting": "[8]; [12]", "value": ">100", "unit": "µM"}, {"measurement": "MIC", "setting": "[9]; Fe+ (iron-rich MHII broth)", "value": ">100", "unit": "µM"}, {"measurement": "MIC", "setting": "[9]; [12]", "value": ">100", "unit": "µM"}, {"measurement": "MIC (generally inactive)", "setting": "[10]; across bacteria", "value": "> 100", "unit": "µM"}, {"measurement": "MIC", "setting": "[11]; Fe+ (iron-rich MHII broth)", "value": ">100", "unit": "µM"}, {"measurement": "MIC", "setting": "[11]; [12]", "value": ">100", "unit": "µM"}]}
{"smiles": "CC(=O)Oc1cccc(C(=O)NCCNC(=O)CN2CCN(CC(=O)NCCCOCCOCCOCCCNC(=O)c3cc4cc5c6c(c4oc3=O)CCCN6CCC5)CCN(CC(=O)NCCNC(=O)c3cccc(OC(C)=O)c3OC(C)=O)CCN(CC(=O)NCCNC(=O)c3cccc(OC(C)=O)c3OC(C)=O)CC2)c1OC(C)=O", "note": "[HHY-10]", "values": [{"measurement": "MIC", "setting": "[1]; Pseudomonas aeruginosa, PA07/WT, Fe+ (iron-rich MHII broth)", "value": "> 100", "unit": "µM"}, {"measurement": "MIC", "setting": "[1]; Pseudomonas aeruginosa, PA07/WT, Fe− (iron-deficient MHII broth)", "value": 40, "unit": "µM"}, {"measurement": "MIC", "setting": "[2]; Pseudomonas aeruginosa, PAO01/FPTA, Fe+ (iron-rich MHII broth)", "value": "> 100", "unit": "µM"}, {"measurement": "MIC", "setting": "[2]; Pseudomonas aeruginosa, PAO01/FPTA, Fe− (iron-deficient MHII broth)", "value": 40, "unit": "µM"}, {"measurement": "uptake: fluorescence (green signal from coumarin) in bacteria", "setting": "[3]", "value": "obvious fluorescent signals"}, {"measurement": "MIC", "setting": "[4]; Pseudomonas aeruginosa, DSM24068, Fe+ (iron-rich MHII broth)", "value": "> 100", "unit": "µM"}, {"measurement": "MIC", "setting": "[4]; Pseudomonas aeruginosa, DSM24068, Fe− (iron-deficient MHII broth)", "value": 33, "unit": "µM"}, {"measurement": "MIC", "setting": "[5]; Pseudomonas aeruginosa, PA14, Fe+ (iron-rich MHII broth)", "value": "> 100", "unit": "µM"}, {"measurement": "MIC", "setting": "[5]; Pseudomonas aeruginosa, PA14, Fe− (iron-deficient MHII broth)", "value": 40, "unit": "µM"}, {"measurement": "MIC", "setting": "[6]; [12]", "value": ">100", "unit": "µM"}, {"measurement": "MIC", "setting": "[6]; Klebsiella pneumoniae", "value": "> 100", "unit": "µM"}, {"measurement": "MIC", "setting": "[6]; Klebsiella pneumoniae, read-out: MIC (inactive against K. pneumoniae)", "value": "> 100", "unit": "µM"}, {"measurement": "MIC", "setting": "[7]; Acinetobacter baumannii, Fe+ (iron-rich MHII broth)", "value": "> 100", "unit": "µM"}, {"measurement": "MIC", "setting": "[7]; Acinetobacter baumannii, Fe− (iron-deficient MHII broth)", "value": 15, "unit": "µM"}, {"measurement": "MIC", "setting": "[8]; Staphylococcus aureus, Fe+ (iron-rich MHII broth)", "value": "> 100", "unit": "µM"}, {"measurement": "MIC", "setting": "[8]; Staphylococcus aureus, Fe− (iron-deficient MHII broth)", "value": 28, "unit": "µM"}, {"measurement": "MIC", "setting": "[9]; Pseudomonas aeruginosa, PA01/WT, Fe+ (iron-rich MHII broth)", "value": "> 100", "unit": "µM"}, {"measurement": "MIC", "setting": "[9]; Pseudomonas aeruginosa, PA01/WT, Fe− (iron-deficient MHII broth)", "value": 40, "unit": "µM"}, {"measurement": "antibacterial activity", "setting": "[10]; iron-deficient medium", "value": "media antibacterial activity"}, {"measurement": "MIC", "setting": "[11]; Pseudomonas aeruginosa, PA01/PIRA, Fe+ (iron-rich MHII broth)", "value": "> 100", "unit": "µM"}, {"measurement": "MIC", "setting": "[11]; Pseudomonas aeruginosa, PA01/PIRA, Fe− (iron-deficient MHII broth)", "value": 40, "unit": "µM"}]}
